{
  "source": "patent US10167259B2",
  "about": "“Allosteric inhibitors of proteasome and methods of use thereof” (THE BOARD OF REGENTS OF THE UNIVERSITY OF TEXAS SYSTEM, priority 2013, dated 2019)",
  "key": {"[1]": {"tested_on": "chymotrypsin-like activity of the core particle (CP; 20S)", "test": "Inhibition of chymotrypsin-like peptidase activity of the proteasome core particle"}, "[2]": {"tested_on": "core proteasome α face (gate conformers)", "test": "Atomic force microscopy (AFM) imaging of core proteasome gate conformers", "settings": "FIG. 1E"}, "Solubility in solvents": {"test": "Solubility in solvents", "type": "physicochemical"}, "[3]": {"tested_on": "proteasome chymotrypsin-like activity in Mcf7 lysate", "test": "Total chymotrypsin-like activity of the proteasome in cell lysates", "type": "biochemical", "protocol": "(§1) The in vitro effects of the compound B1 are also detectable in cell lysates (FIGS. 3A-E). The total chymotrypsin-like activity of the proteasome in the Mcf7 and Mcf10A lysates was measured. […] Also, B1 appears to be stable in the presence of the whole cell lysate or the purified core particle (FIG. 3C)."}, "[4]": {"test": "Stability in the presence of cell lysate or purified CP (RP-HPLC)", "type": "in vitro ADME", "settings": "cell lysate 0.5 mg/ml or purified CP, up to 1 h at 37° C., FIG. 3C", "protocol": "as §1"}, "mTOR": {"molecular_target": "mTOR (Homo sapiens, UniProt P42345)", "test": "mTOR activity in HeLa cells (Western blot with anti-phosphoS6 antibodies)", "type": "cell-based", "settings": "up to 100 nM, FIG. 3B"}, "[5]": {"tested_on": "post-glutamyl peptidase of the core particle", "test": "Inhibition of post-glutamyl peptidase of the core particle", "settings": "allosteric, noncompetitive"}, "[6]": {"tested_on": "proteasome (20S and 26S) in multiple myeloma cells", "test": "Proteasome activity in lysates of treated cultured multiple myeloma cells", "type": "cell-based"}, "MDA-MB-231 cells": {"tested_on": "MDA-MB-231 cells", "type": "cell-based"}, "26S proteasome assembly": {"molecular_target": "26S proteasome assembly", "test": "Inhibition of proteinase activity of the 26S proteasome (casein-BODIPY degradation)", "settings": "read-out: IC50, inhibition of proteinase activity of the 26S proteasome assembly; model substrate casein-BODIPY; FIG. 1C"}, "MCF-7 cells": {"tested_on": "MCF-7 cells", "type": "cell-based"}, "[7]": {"tested_on": "polyubiquitinated proteins in MDA-MB-231 cells", "test": "Accumulation of polyubiquitinated proteins in treated MDA-MB-231 cells (Western blot, FK-1)", "type": "cell-based", "settings": "MDA-MB-231, 24 hrs, 160 nM; FIG. 3E"}, "[8]": {"molecular_target": "core proteasome activated by Rpt2 and Rpt5 tail peptides", "test": "Blocking activation of core proteasome chymotrypsin-like activity by Rpt2 and Rpt5 tail peptides", "type": "biochemical", "excerpt": "(§2) The grooves are utilized by Rpt2, Rpt3 and Rpt5 subunits that anchor the regulatory particle to the core particle (Lander, et al., 2009). The anchoring C-terminal tails of Rpt2 and Rpt5 subunits are responsible for core particle gate opening and activation (Lander, et al., 2009). Activation of the core by both Rpt2 and Rpt5 tails is affected by B1 (FIG. 2C). The groove accommodating the C-terminal tail of Rpt2 subunit may be a primary docking place for B1, or B1 may allosterically affect binding of Rpt2 C-terminal tail with an exceptionally high efficiency (FIG. 2D). In vitro reconstruction of the 26S proteasome assembly from the core particle (20S) and regulatory particle (19S) components is attenuated by the treatment with B1 (FIG. 2E)."}, "MCF-10A cells": {"tested_on": "MCF-10A cells", "type": "cell-based", "settings": "160 nM; FIG. 3D"}, "[9]": {"molecular_target": "core particle (20S) activated by regulatory particle 19S", "test": "In vitro activation of the core by purified regulatory particle 19S (26S reconstruction)", "type": "biochemical", "settings": "FIG. 2E; read-out: IC50, interference with in vitro activation of the core by purified regulatory particle 19S", "excerpt": "as §2"}, "[10]": {"tested_on": "multiple myeloma RPMI8226 cells", "test": "Growth and viability of multiple myeloma RPMI8226 cells", "type": "cell-based", "settings": "B1 alone"}, "[11]": {"settings": "Chou-Talalay, fraction affected >0.3, mostly 1:1 conc. ratio"}},
  "data": [
    {"compound": "COc1cc(/C=C/CCCOC(=O)C2CCCCN2C(=O)C(=O)C2CCCCC2)cc(OC)c1OC", "note": "(stereo not drawn) [B4]", "values": [
      {"measurement": "Inhibitory properties toward the core proteasome after modification of B1", "setting": "[1]", "result": "does not erase the inhibitory properties"}
    ]},
    {"compound": "CO[C@@H](C[C@@H]1CC[C@@H](C)[C@](O)(C(=O)C(=O)N2CCCC[C@H]2C(=O)[O-])O1)/C(C)=C/C=C/C=C/[C@@H](C)C[C@@H](C)C(=O)[C@H](OC)[C@H](O)/C(C)=C/[C@@H](C)C(=O)/C=C/[C@H](C)C[C@@H]1CC[C@@H](O)[C@H](OC)C1.[Na+]", "note": "[seco-rapamycin, reference compound]", "values": [
      {"measurement": "Content of open-gate conformers in the treated core particle (AFM)", "setting": "[2]", "result": "unusually high content of open-gate conformers"}
    ]},
    {"compound": "COc1cc(CCCNC(=O)C2CCCCN2C(=O)C(=O)C2CCCCC2)cc(OC)c1OC", "note": "(stereo not drawn) [B2]", "values": [
      {"measurement": "Inhibitory properties toward the core proteasome after modification of B1", "setting": "[1]", "result": "does not erase the inhibitory properties"},
      {"measurement": "Soluble in", "setting": "Solubility in solvents", "result": "DMSO, CDCl3"}
    ]},
    {"compound": "COc1cc(CCCCCOC(=O)C2CCCCN2C(=O)C(=O)C2CCCCC2)cc(OC)c1OC", "note": "(stereo not drawn) [B5]", "values": [
      {"measurement": "Inhibitory properties toward the core proteasome after modification of B1", "setting": "[1]", "result": "does not erase the inhibitory properties"}
    ]},
    {"compound": "COc1cc(CCCOC(=O)C2CCCCN2C(=O)C(=O)C2CCCCC2)cc(OC)c1OC", "note": "(stereo not drawn) [B1]", "values": [
      {"measurement": "Combined effect with bortezomib on chymotrypsin-like activity of the core particle", "setting": "[1]; in vitro, FIG. 1D", "result": "synergizes with bortezomib"},
      {"measurement": "IC50", "setting": "[1]; read-out: IC50, inhibition of chymotrypsin-like activity of the core particle, FIG. 1B", "result": 19, "unit": "nM"},
      {"measurement": "Inhibition of total chymotrypsin-like activity of the proteasome in Mcf7 lysate", "setting": "[3]", "result": "well pronounced"},
      {"measurement": "Stability in the presence of cell lysate or purified CP", "setting": "[4]", "result": "remains intact"},
      {"measurement": "Effect on mTOR activity", "setting": "mTOR", "result": "does not inhibit mTOR activity"},
      {"measurement": "Effect on post-glutamyl peptidase of the core particle", "setting": "[5]", "result": "inhibits"},
      {"measurement": "Total proteasome activity in lysates of treated cells versus DMSO control", "setting": "[6]; 50 nM B1, model peptide substrate, FIG. 3F left", "result": "lower than in control cells"},
      {"measurement": "Partition of activities between core particle (20S) and 26S assembly", "setting": "[6]; 50 nM B1, non-denaturing gels, FIG. 3F right", "result": "shifted in the B1-treated cells toward more of the 20S and less of the 26S proteasomes"},
      {"measurement": "Cytotoxicity to MDA-MB-231 cells", "setting": "MDA-MB-231 cells; B1 alone, 160 nM, 24 hrs, trypan blue exclusion, FIG. 3D", "result": "cytotoxic"},
      {"measurement": "Combination Index (CI) with bortezomib, MDA-MB-231", "setting": "MDA-MB-231 cells; [11]", "result": "below 1"},
      {"measurement": "IC50", "setting": "26S proteasome assembly", "result": 41, "unit": "nM"},
      {"measurement": "Effect on open-gate/closed-gate conformers of the core proteasome (AFM)", "setting": "[2]; B1 treatment (100 nM)", "result": "shift toward higher abundance of the open gate conformers"},
      {"measurement": "Content of open-gate conformers in the treated core particle (AFM)", "setting": "[2]", "result": "unusually high content of open-gate conformers"},
      {"measurement": "Cytotoxicity to MCF-7 cells", "setting": "MCF-7 cells; B1 alone, 40 nM, 24 hrs, trypan blue exclusion, FIG. 3D", "result": "cytotoxic"},
      {"measurement": "Combination Index (CI) with bortezomib, MCF-7", "setting": "MCF-7 cells; [11]", "result": "below 1"},
      {"measurement": "Polyubiquitinated proteins in lysates of treated cells", "setting": "[7]", "result": "accumulation of polyubiquitinated proteins"},
      {"measurement": "IC50", "setting": "[8]; FIG. 2C", "result": "~2", "unit": "nM"},
      {"measurement": "Blocking activation of the core by the Rpt2 tail", "setting": "[8]; tail present at high, micromolar-range concentrations, FIG. 2D", "result": "exceptionally effective"},
      {"measurement": "Cytotoxicity to non-cancerous Mcf10A cells", "setting": "MCF-10A cells", "result": "refractory to the treatment"},
      {"measurement": "IC50", "setting": "[9]", "result": 7.8, "unit": "nM"},
      {"measurement": "Effect on growth of multiple myeloma RPMI8226 cells", "setting": "[10]; FIG. 3D right", "result": "efficiently prevented growth"},
      {"measurement": "IC50", "setting": "[10]; Homo sapiens, RPMI-8226, FIG. 3D, read-out: IC50, multiple myeloma cultured cells", "result": 59, "unit": "nM"}
    ]}
  ]
}
